Source: ChEMBL document CHEMBL3272309, “Potential central nervous system antitumor agents. Aziridinylbenzoquinones. 1” (J Med Chem, 1976)
Calls of active or inactive are those of the source. The calls are words filed in the database; no cut-off is given here.

Tests used:
[1] = system: L1210; assay: Antitumor activity against mouse L1210 cells allografted in mouse assessed as change in body weight at 4.6 mg/kg, ip qd administered from day 1 to 9 post ip tumor-implantation measured on day 5 relative to control; type: functional; conditions: route intraperitoneal
[2] = Therapeutic ratio, ratio of highest active dose to lowest active for antitumor activity against in ip dosed mouse allografted with mouse B16 cells; type: ADME, organism-based; conditions: in vivo, read-out: TI
[3] = system: Mus musculus; assay: Toxicity in mouse allografted with mouse L1210 cells at 12.5 mg/kg, ip qd administered from day 1 to 9 post ip tumor-implantation; type: organism-based; set-up: dose 12.5 mg/kg, route intraperitoneal; conditions: in vivo
[4] = system: Mus musculus; assay: Antitumor activity against mouse ependymoblastoma cells allografted in mouse assessed as cure rate at 2 mg/kg, ip qd administered from day 1 to 5 post intracerebral tumor-implantation measured on day 99; type: functional, organism-based; set-up: dose 2 mg/kg
[5] = Antitumor activity against mouse ependymoblastoma cells allografted in mouse assessed as change in body weight at 4 mg/kg, ip qd administered from day 1 to 5 post intracerebral tumor-implantation measured on day 5 relative to control; type: functional; conditions: route intraperitoneal
[6] = system: L1210; assay: Antitumor activity against mouse L1210 cells allografted in ip dosed mouse at optimum dose administered qd on day 1, 5 and 9 relative to control; type: functional
[7] = system: L1210; assay: Antitumor activity against mouse L1210 cells allografted in mouse assessed as mouse survival at 2 mg/kg, ip qd administered from day 1 to 9 post ip tumor-implantation relative to control; type: functional; conditions: route intraperitoneal
[8] = Therapeutic ratio, ratio of highest active dose to lowest active for antitumor activity against in ip dosed mouse allografted with mouse P388 cells; type: ADME, organism-based; conditions: in vivo, read-out: TI
[9] = Therapeutic ratio, ratio of highest active dose to lowest active for antitumor activity against in ip dosed mouse allografted with mouse L1210 cells; type: ADME, organism-based; conditions: in vivo, read-out: TI
[10] = Antitumor activity against mouse ependymoblastoma cells allografted in mouse assessed as mouse survival at 4 mg/kg, ip qd administered from day 1 to 5 post intracerebral tumor-implantation relative to control; type: functional; conditions: route intraperitoneal
[11] = system: L1210; assay: Antitumor activity against mouse L1210 cells allografted in mouse assessed as change in body weight at 6.25 mg/kg, ip qd administered from day 1 to 9 post ip tumor-implantation measured on day 5 relative to control; type: functional; conditions: route intraperitoneal
[12] = system: L1210; assay: Antitumor activity against mouse L1210 cells allografted in mouse assessed as mouse survival at 1.3 mg/kg, ip qd administered from day 1 to 9 post ip tumor-implantation relative to control; type: functional; conditions: route intraperitoneal
[13] = Therapeutic ratio, ratio of highest active dose to lowest active for antitumor activity against in ip dosed mouse allografted with mouse LLC cells; type: organism-based, Lewis lung carcinoma; conditions: in vivo, read-out: TI
[14] = system: P388; assay: Antitumor activity against mouse P388 cells allografted in mouse assessed as mouse survival at 0.78 mg/kg, ip qd administered from day 1 to 9 post ip tumor-implantation relative to control; type: functional; conditions: route intraperitoneal
[15] = system: P388; assay: Antitumor activity against mouse P388 cells allografted in mouse assessed as change in body weight at 6.25 mg/kg, ip qd administered from day 1 to 9 post ip tumor-implantation measured on day 5 relative to control; type: functional; conditions: route intraperitoneal
[16] = system: L1210; assay: Antitumor activity against mouse L1210 cells allografted in ip dosed mouse assessed as optimum dose administered qd on day 1, 5 and 9; type: functional
[17] = system: B16; assay: Antitumor activity against mouse B16 cells allografted in mouse assessed as mouse survival at 1.56 mg/kg, ip qd administered from day 1 to 9 post ip tumor-implantation relative to control; type: functional; conditions: route intraperitoneal
[18] = system: L1210; assay: Antitumor activity against mouse L1210 cells allografted in mouse assessed as change in body weight at 3.12 mg/kg, ip qd administered from day 1 to 9 post intracerebral tumor-implantation measured on day 5 relative to control; type: functional; conditions: route intraperitoneal
[19] = system: L1210; assay: Antitumor activity against mouse L1210 cells allografted in mouse assessed as mouse survival at 0.78 mg/kg, ip qd administered from day 1 to 9 post intracerebral tumor-implantation relative to control; type: functional; conditions: route intraperitoneal
[20] = system: L1210; assay: Antitumor activity against mouse L1210 cells allografted in mouse assessed as change in body weight at 0.88 mg/kg, ip qd administered from day 1 to 9 post ip tumor-implantation measured on day 5 relative to control; type: functional; conditions: route intraperitoneal
[21] = system: B16; assay: Antitumor activity against mouse B16 cells allografted in mouse assessed as mouse survival at 3.12 mg/kg, ip qd administered from day 1 to 9 post ip tumor-implantation relative to control; type: functional; conditions: route intraperitoneal
[22] = Antitumor activity against mouse ependymoblastoma cells allografted in mouse assessed as change in body weight at 8 mg/kg, ip qd administered from day 1 to 5 post intracerebral tumor-implantation measured on day 5 relative to control; type: functional; conditions: route intraperitoneal
[23] = system: Mus musculus; assay: Toxicity in mouse allografted with mouse B16 cells at 6.25 mg/kg, ip qd administered from day 1 to 9 post ip tumor-implantation; type: organism-based; set-up: dose 6.25 mg/kg, route intraperitoneal; conditions: in vivo
[24] = Antitumor activity against mouse ependymoblastoma cells allografted in mouse assessed as mouse survival at 1 mg/kg, ip qd administered from day 1 to 5 post intracerebral tumor-implantation relative to control; type: functional; conditions: route intraperitoneal
[25] = system: Lewis lung carcinoma cell line; assay: Antitumor activity against mouse LLC cells allografted in mouse assessed as mouse survival at 2 mg/kg, ip qd administered from day 5 to 15 post sc tumor-implantation relative to control; type: functional; conditions: route subcutaneous
[26] = system: B16; assay: Antitumor activity against mouse B16 cells allografted in mouse assessed as change in body weight at 1.56 mg/kg, ip qd administered from day 1 to 9 post ip tumor-implantation measured on day 5 relative to control; type: functional; conditions: route intraperitoneal
[27] = system: P388; assay: Antitumor activity against mouse P388 cells allografted in mouse assessed as mouse survival at 3.12 mg/kg, ip qd administered from day 1 to 9 post ip tumor-implantation relative to control; type: functional; conditions: route intraperitoneal
[28] = system: L1210; assay: Antitumor activity against mouse L1210 cells allografted in mouse assessed as change in body weight at 1.3 mg/kg, ip qd administered from day 1 to 9 post ip tumor-implantation measured on day 5 relative to control; type: functional; conditions: route intraperitoneal
[29] = system: Mus musculus; assay: Toxicity in mouse allografted with mouse P388 cells at 6.25 mg/kg, ip qd administered from day 1 to 9 post intracerebral tumor-implantation; type: organism-based; set-up: dose 6.25 mg/kg, route intraperitoneal; conditions: in vivo
[30] = system: L1210; assay: Antitumor activity against mouse L1210 cells allografted in mouse assessed as change in body weight at 1.56 mg/kg, ip qd administered from day 1 to 9 post intracerebral tumor-implantation measured on day 5 relative to control; type: functional; conditions: route intraperitoneal
[31] = Antitumor activity against mouse ependymoblastoma cells allografted in mouse assessed as mouse survival at 0.25 mg/kg, ip qd administered from day 1 to 5 post intracerebral tumor-implantation relative to control; type: functional; conditions: route intraperitoneal
[32] = system: P388; assay: Antitumor activity against mouse P388 cells allografted in mouse assessed as change in body weight at 0.78 mg/kg, ip qd administered from day 1 to 9 post intracerebral tumor-implantation measured on day 5 relative to control; type: functional; conditions: route intraperitoneal
[33] = system: Lewis lung carcinoma cell line; assay: Antitumor activity against mouse LLC cells allografted in mouse assessed as change in body weight at 2 mg/kg, ip qd administered from day 5 to 15 post sc tumor-implantation measured on day 5 relative to control; type: functional; conditions: route subcutaneous
[34] = system: P388; assay: Antitumor activity against mouse P388 cells allografted in mouse assessed as mouse survival at 3.12 mg/kg, ip qd administered from day 1 to 9 post intracerebral tumor-implantation relative to control; type: functional; conditions: route intraperitoneal

For CCOC(=O)NC1=C(N2CC2)C(=O)C(NC(=O)OCC)=C(N2CC2)C1=O [DIAZIQUONE], the Activity [1] was -4.6 g, the selectivity ratio [2] was 3 and the Activity [3] was “Toxic”. For the same compound, the Activity [4] was “Active”, the Activity [5] was -3.9 g and the T/C [6] was 154%. It also gave a T/C [7] of 201%, a selectivity ratio [8] of 3 and a selectivity ratio [9] of 4. The T/C [10] was 376%, the Activity [11] was -4.1 g and the T/C [12] was 160%. The selectivity ratio [13] was 3, the T/C [14] was 199% and the Activity [15] was -6.1 g. It also gave an Activity [16] of 6.25 mg/kg, a T/C [17] of 138% and an Activity [18] of -2.1 g. The T/C [19] was 103%, the Activity [20] was -1.4 g and the T/C [21] was 143%. For the same compound, the Activity [22] was -5 g, the Activity [23] was “Toxic” and the T/C [24] was 226%. For the same compound, the T/C [25] was 134%, the Activity [26] was -3.6 g and the T/C [27] was 100%. The Activity [28] was -2.3 g, the Activity [29] was “Toxic” and the Activity [30] was -0.6 g. The T/C [31] was 130%, the Activity [32] was -0.4 g and the Activity [33] was 0.3 g. For the same compound, the T/C [34] was 131%.
